# From US20210244773A1, “DENTAL PULP STEM CELLS AND USES THEREOF” (priority 2018, published 2021)
# Where “and” joins values, the source holds several entries; their conditions need not be identical. Identical values can stand only once.
# Columns and labels:
# Assay type in all cases: cell-based, human
# [1] = system: DPSC; test: DPSC neuronal differentiation with TNF-alpha, lipoxin A4 or resolvin D1, flow cytometry (Example 3); details: for TNF-alpha-induced decrease in β III-tubulin expression: FIG. 6, both 10 and 100 nM, p<0.05; for neuronal differentiation of DPSC without TNF-alpha: added alone at either dose (10 or 100 nM), data not shown
# Method: DPSC were isolated from the teeth of 7 healthy donors extracted during routine dental care. Samples were selected from our tooth biorepository based on the following donor characteristics: absence of medical comorbidities, no active medication use (aside from vitamin supplements), and absence of periodontal disease or tooth decay. The extracted pulp were plated and then cultured in basal medium, DMEM/F12+15% FBS supplemented with 100 U/mL non-essential amino acids (Gibco Life Technologies), 100 U/mL penicillin and streptomycin, and glutamine (Gibco Life Technologies). Outgrowing fibroblast-like cells appeared after 3-4 days and at that point the pulp was replated. The outgrowing cells were passaged after reaching 80% confluence and passage 4 was used for all experiments. Cells were seeded in duplicate with 2×10^4 cells/well. Neuronal differentiation was induced by replacing DMEM/F12+15% FBS culture media with neuronal differentiation media (NeuroCult NS-A Differentiation Kit-Human, StemCell Technologies Inc., Tukwila, Wash., USA) 48 hours after seeding. Cells were cultured under neuronal induction conditions for up to 21 days with culture media changed twice a week.
# Varying concentrations of TNF-alpha (1, 10, 25, and 100 ng/mL, PeproTech, Rocky Hill, N.J., USA), lipoxin A4 (10 and 100 nM, Cayman Chemical, Ann Arbor, Mich., […], Cayman Chemical, Ann Arbor, Mich., USA) were added to the culture of both differentiated and non-differentiated cells starting 48 hours after seeding. In some experiments cells were treated with both TNF-alpha and lipoxin A4 or resolvin D1.
# Expression of stem cell and neuronal cell markers was determined by flow cytometry. […] Cells were incubated for 1 hour at room temperature with the following primary antibodies against stem cell markers: rabbit anti-CD44 (Abcam, 1:30) and rabbit anti-OCT4 (Abcam, 1:200) and neuronal markers: rabbit anti-nestin (Abcam, 1:100), rabbit anti-doublecortin (Abcam, 1:50), mouse anti-β III-tubulin (Abcam, 1:100), and rabbit anti-NeuN (Abcam, 1:100). Fluorescence was achieved by incubating with secondary antibodies (Life Tech, Carlsbad, Calif., goat anti-rabbit IgG or goat anti-mouse IgG, dilution 1:500) for 1 hour at room temperature in a dark room. Cells were then subjected to flow cytometry and the percentage of cells expressing each marker was calculated.
# Each analysis was performed in duplicate using cells from all donors. Median and interquartile ranges were calculated for each condition. Mann-Whitney tests were used for all statistical analyses; p<0.05 was considered significant.
# [2] = system: dental pulp stem cells; test: MTT metabolic activity assay of dental pulp stem cells
# Method: The metabolic activity of cells was determined by 3-(4,5-dimethylthiazol-2-yl)-2,5-diphenyltetrazolium bromide (MTT) assay at various time points to assess TNF-α toxicity on dental pulp stem cells. Cells were incubated for 4 hours in 5 mg/mL thiazolyl blue tetrazolium bromide (Sigma Aldrich, St. Louis, Mo., USA), the precipitate was suspended with 2-propanol (Sigma Aldrich, St. Louis, Mo., USA), and absorbance was determined in triplicate.
# [3] = system: DPSC expression of IL-6, IL-8, IL-1β; test: Inflammatory cytokine gene expression in DPSC by real-time PCR; details: all doses (1, 10, 25, 100 ng/ml), 24 hours
# Method: Induction of inflammatory cytokine gene expression was determined by real-time PCR to optimize TNF-α treatment conditions. Total RNA was extracted from cells using Trizol (Life Technologies). 10 μL total RNA was reverse transcribed to cDNA using iScript cDNA Synthesis Kit (Bio-Rad, Hercules, Calif., USA). 1 μL cDNA used as template for real-time PCR amplification reactions using the iQ SYBR Green Supermix (Bio-Rad) in combination with […] of each gene-specific primer, according to manufacturer's instructions. Glyceraldehyde 3-phosphate dehydrogenase (GAPDH) was used as endogenous control. PCR reactions were conducted in duplicate using the following conditions: initial denaturation for 3 min at 95° C. followed by 40 cycles of 15 sec denaturation at 95° C. and 60 sec annealing at 60° C. Relative quantification was used for statistical analyses. The following primers were used: […]
# [4] = 25 ng/ml TNF-alpha, 21 days of differentiation, versus absence of TNF-alpha
compound,measurement,setting,value
CCCCC[C@H](O)/C=C/C=C\C=C\C=C\[C@@H](O)[C@@H](O)CCCC(=O)O [lipoxin A4],β III-tubulin expression (percent of cells),[1]; 25 ng/ml TNF-alpha + 10 nM lipoxin A4,59%
same,increase in β III-tubulin expression versus TNF-alpha alone,"[1]; 25 ng/ml TNF-alpha + 10 nM lipoxin A4, p=0.02",84%
same,β III-tubulin expression versus TNF-alpha alone,"[1]; 25 ng/ml TNF-alpha + lipoxin A4 100 nM, p=0.03",Results were similar
same,TNF-alpha-induced decrease in β III-tubulin expression,[1],mitigated
same,neuronal differentiation of DPSC without TNF-alpha,[1],no reduction or improvement
CC/C=C\C[C@H](O)/C=C/C=C\C=C\C=C\[C@@H](O)[C@@H](O)C/C=C\CCC(=O)O [resolvin D1],increase in β III-tubulin expression versus TNF-alpha alone,"[1]; 25 ng/ml TNF-alpha + 100 nM resolvin D1, p=0.02",78%
same,β III-tubulin expression (percent of cells),[1]; 25 ng/ml TNF-alpha + 100 ng/ml resolvin D1,57%
same,β III-tubulin expression versus TNF-alpha alone,"[1]; 25 ng/ml TNF-alpha + resolvin D1 10 nM, p=0.09",approached significance
same,TNF-alpha-induced decrease in β III-tubulin expression,[1],mitigated
same,neuronal differentiation of DPSC without TNF-alpha,[1],no reduction or improvement
TNF-alpha,cells expressing the early marker doublecortin,"[1]; 25 ng/ml TNF-alpha, 21 days of differentiation",non-significant increase
same,expression of early neuronal marker nestin,[1]; [4],no difference
same,expression of stem cell marker CD44,[1]; [4],no difference
same,expression of stem cell marker OCT 3/4,[1]; [4],no difference
same,decrease in differentiated cells expressing β III-tubulin,"[1]; 25 ng/ml TNF-alpha, neuronal differentiation, decrease",70% and 59%
same,β-III tubulin expression,"[1]; FIG. 6, presence of TNF-alpha",significant decrease
same,β III-tubulin expression (percent of cells),[1]; neural induction with 25 ng/ml TNF-alpha alone,32%
same,toxicity to DPSC (succinic dehydrogenase metabolic activity),[2]; TNF-alpha treatment,not toxic
same,metabolic activity (MTT),"[2]; neural induction with 25 ng/ml or 100 ng/ml TNF-alpha, 10 days, versus absence of TNF-alpha",significantly greater metabolic activity
same,DPSC expression of IL-6,[3]; FIG. 4A,significant increases
same,DPSC expression of IL-8,[3]; FIG. 4B,significant increases
same,DPSC expression of IL-1β,[3]; FIG. 4C,significant increases
